US20220062228A1, “USE OF CARNOSOL FOR INCREASING MUSCLE PROTEIN SYNTHESIS” (Centre National De La Recherche Scientifique, priority 2018, published 2022)
Structures can show the parent of a compound that is named as a salt.

Experiments:
[1] = system: human myotubes; assay: culture cell model of human skeletal muscle satellite cells: area of myotubes (troponin T immunofluorescence, Image J); type: cell-based; details: for hypertrophic activity on myotubes, comparison with antioxidant compounds: FIG. 8; for hypertrophic activity on myotubes, carnosol compared with carnosic acid: 1 μg/ml and 5 μg/ml, FIG. 9; for hypertrophic activity on myotubes (area of myotubes) / concentration from which hypertrophic activity is exhibited: myotubes from young human subjects; for hypertrophic activity on myotubes (area of myotubes): 5 μg/ml, FIG. 3; for concentration from which hypertrophic activity is exhibited: FIG. 4
Excerpt: (§1) In order to assay the hypertrophic effect on muscle of compounds from vegetal extracts, the inventors have designed a culture cell model of human skeletal muscle satellite cells. The skeletal muscle satellite cells are able to proliferate and to differentiate ex vivo. When cultured in a growth factors rich medium, the skeletal muscle satellite cells proliferate in the form of myoblasts. At confluence, the myoblasts morphologically differentiate by fusing thereby producing long multinucleated cells (myotubes or myofibers) which express muscular protein. Myotubes are able to respond to hypertrophic and atrophic signals by modulating the balance between the protein synthesis (hypertrophy) or the protein degradation (atrophy) (El Haddad M. et al., Cell Mol Life Sci. 2017 May; 74(10):1923-1936).
The recovered skeletal muscle satellite cells used in the culture cell model by the inventors were recovered from a muscular biopsy of young and elderly subjects.
The satellite cells can be easily recovered from a muscle biopsy and cultured ex vivo in dishes where they proliferate as myoblasts and differentiate into myotubes. The biopsy is treated according to an experimental protocol described and validated by us for human skeletal muscle from quadriceps (Kitzmann et al., 2006; El Haddad et al 2017). The biopsy is cut into a fragment of 1 mm^3 and placed in a culture dish treated with type 1 collagen. The explants are trapped inside in a thin layer of Matrigel (BD Matrigel Matrix, BD Biosciences) in 35 mm-collagen coated Petri dishes with growth media (DMEM/F12, supplemented with 10% fetal bovine serum, 0.1% Ultroser G, 1 ng/ml basic FGF, and 10 microg/mL gentamicin). After 6 to 8 days, when cells migrate out of the explants, they are enzymatically harvested using dispase (BD Biosciences) and subcultured in growth medium. Harvested cells are purified by immunomagnetic cell sorting using magnetic activated cell sorter (MACS) microbeads (MiltenyiBiotec) coupled to an antibody against CD56. Usually in protocols of muscle culture cells, muscle differentiation is induced by growing confluent myoblasts in differentiation medium depleted of growth factors. At confluence, myoblasts start to differentiate and differentiation can be evidenced 1) morphologically (after 2 to 4 days), as the fusion of myoblasts generates long giant multinucleated cells (named myotubes) and 2) biochemically, as myotubes express proteins required for muscle contraction. Differentiation is assessed by immunofluorescence using the antibodies against Troponin T and Myogenin, two markers of muscle differentiation. The differentiation status is also confirmed by precisely measuring the expression of three differentiation markers (Myogenin, Sarcomeric Actin and Caveolin by RT-qPCR). Expression of RPLP0 is also quantified as internal control.
Briefly, myoblasts are seeded at 10^5 cells/dish onto 35 mm collagen-coated dishes and cultured in growth medium (DMEM/F12, supplemented with 10% fetal bovine serum, 0.1% Ultroser G, 1 ng/ml basic FGF, and 10 microg/ml gentamicin). Myogenic differentiation of confluent cells was induced after 3 days by changing to DMEM containing 5% FBS (differentiation medium). Cells were kept in differentiation medium for 3 to 4 days.
Then the cells are fixed and the expression of troponin T (a protein of the cytoskeleton which is exclusively expressed by myotubes) is analysed by immuno-fluorescence. Then the area of myotubes is measured using the Image J software. If the area increases the compound has a hypertrophic activity and if the area decreases the compound has an atrophic activity.
The skeletal muscle satellite cells came from young people (aged under 30).

[2] = system: NRF2 pathway; assay: induction of the NRF2 pathway (NRF2, HO-1) in skeletal muscle cells; type: cell-based; details: for NRF2 accumulation / full activation of NRF2 pathway by inducing HO-1: skeletal muscle, 6 μM
Excerpt: The regulation of Nrf2 signaling is believed to preserve redox homeostasis and protect the structure and function of skeletal muscle. Nrf2 is a transcription factor, inactivated by Keap-1 in the cytoplasm. Upon activation, Keap1 is degraded, and NRF2 mediates intracellular antioxidant response by binding to the antioxidant response element (ARE) in the promoter of its target genes and induces the expression of a set of antioxidant enzymes, called ‘phase 2 enzymes,’ including heme oxygenase-1 (HO-1). Recently it has been shown that Nrf2 deficiency caused accelerated aging and muscle loss during aging.
Since carnosic acid and carnosol are antioxidants molecules and can activate the NRF2 pathway in several type of cells, it was studied whether carnosic acid and carnosol are capable of inducing NRF2 pathway in skeletal muscle.
In order to know whether NRF2 pathway activation is sufficient to activate hypertrophy in skeletal muscle cells. An assay with DMF (dimethyl Fumarate) has been carried out. Given DMF is a NRF2 activator, if the NRF2 pathway activation is sufficient to activate hypertrophy in skeletal muscle cells then DMF should induce myotube hypertrophy.

[3] = system: MuRF1; assay: western blot of MuRF1 in myotubes / skeletal muscle cells; type: cell-based, human
Excerpt: The muscle protein degradation may be measured by assaying the level of expression of an ubiquitin ligases such as muscle RING-finger protein-1 (MuRF1).

[4] = system: mTOR pathway; assay: western blot of signaling pathways controlling muscle hypertrophy in myotubes; type: cell-based, human; details: FIG. 14
Excerpt: Two main pathways control the regeneration of contractile proteins: • PI3K/Akt/mTOR which is the major pathway of muscle hypertrophy and • pathway of the transcription factors of FOXO family which controls the expression of the genes involved in the proteasome degradation systems and the autophagy (respectively atrogenes and genes of the autophagy).
At the molecular level, it has been established that the activation of the PI3K/Akt/mTOR pathway stimulates the protein synthesis through their anabolizing targets (mTOR, protein S6 kinase 1 (S6K) and the eIF4E-binding proteins (4E-BP) and blocks the ubiquitine E3 of the family of atrogenes MuRF1 and MAFbx mediated proteolysis pathway (FOXO) (Egerman and Glass, Signaling pathways controlling skeletal muscle mass. Crit Rev Biochem Mol Biol. 2014 January-February; 49(1):59-68).

[5] = system: protein synthesis in myotubes; assay: SUnSET puromycin incorporation western blot (protein synthesis) in the culture cell model; type: cell-based, human; details: myotubes stimulated with carnosol, puromycin 30 minutes before recovery; FIG. 13
Method: The synthesis of muscle protein may be measured in vitro by the method disclosed in Schmidt et al., SUnSET, a nonradioactive method to monitor protein synthesis, Nat Methods. 2009 April; 6(4):275-7. Muscle cells were treated with puromycin, 30 minutes before recovering the protein from the cells. Then, a western blot is carried out with anti-puromycin antibodies in order to show the translation rate of the mRNA in the living cells.
The muscular hypertrophic activity of carnosol may result from a global increase of the synthesis of proteins. To study this hypothesis, the culture cell model disclosed above was stimulated with carnosol. Then, 30 minutes before recovering the protein from the cells, the cells were treated with puromycin. The puromycin is incorporated in the neo-synthetized proteins. Then, a western blot was carried out with anti-puromycin antibodies in order to show the translation rate of the mRNA in the living cells (Schmidt et al., SUnSET, a nonradioactive method to monitor protein synthesis. Nat Methods. 2009; 6:275-277) (see FIG. 13).

[6] = system: MURF1 protein; assay: western blot analysis on muscle extract for MURF1 protein; type: in vivo; details: adult C57 BL6 J mice, daily oral dose of 80 mg/Kg for 12 days; FIG. 7
Method: (§2) Hypertrophic Activity of Carnosol In Vivo To investigate whether carnosol can alter skeletal muscle physiology, adult mice (13 weeks old, C57 BL6 J) were treated for 12 days with a daily oral dose of 80 mg/Kg. […] The determination of the fibre areas (CSA) was made using the Myovision software.
Then, a western blot analysis on muscle extract was performed to determine the impact of a carnosol treatment on MURF1 protein.

[7] = system: gastrocnemius muscle; assay: fibre areas (CSA) of gastrocnemius muscle sections, anti-dystrophin staining, Myovision; type: in vivo; details: adult C57 BL6 J mice, daily oral dose of 80 mg/Kg for 12 days; FIG. 6
Method: as §2

[8] = system: myotube cells from elderly subject; assay: culture cell model with skeletal muscle satellite cells recovered from elderly subjects: area of myotubes; type: cell-based, human; details: elderly subjects 1 and 2; carnosol 2 μg/ml; FIG. 5
Excerpt: as §1, with “74(10):1923-1936). […]” for “74(10):1923-1936).”
The satellite cells can be easily recovered from a muscle biopsy and cultured ex vivo in dishes where they proliferate as myoblasts and differentiate into myotubes. […] Differentiation is assessed by immunofluorescence using the antibodies against Troponin T and Myogenin, two markers of muscle differentiation. […] Expression of RPLP0 is also quantified as internal control. […]
Then the cells are fixed and the expression of troponin T (a protein of the cytoskeleton which is exclusively expressed by myotubes) is analysed by immuno-fluorescence. Then the area of myotubes is measured using the Image J software. […]

vitamin D [reference compound]
myotube hypertrophy ([1]; human myotubes treated 48 hours, 10^−7M, FIG. 12): Only carnosol induced myotube hypertrophy

CC(C)(O)CC(=O)O [β-hydroxy-β-methylbutyrate, reference compound]
myotube hypertrophy ([1]; human myotubes treated 48 hours, 25 μM and 100 μM, FIG. 11): only carnosol treatment induced myotube hypertrophy

CC(C)C[C@H](N)C(=O)O [leucine, reference compound]
myotube hypertrophy ([1]; human myotubes treated 48 hours, 5 mM, FIG. 10): only carnosol treatment induced myotube hypertrophy

O=C1O[C@H]([C@@H](O)CO)C(O)=C1O [vitamin C, ascorbic acid, reference compound]
hypertrophic activity on myotubes, comparison with antioxidant compounds ([1]; 50 μg/ml): only carnosol has a significant hypertrophic activity

CC(C)c1cc2c(c(O)c1O)[C@@]1(C(=O)O)CCCC(C)(C)[C@@H]1CC2 [carnosic acid, reference compound]
hypertrophic activity on myotubes, carnosol compared with carnosic acid [1]: the hypertrophic activity of carnosol is significantly higher than the one of carnosic acid
hypertrophic activity on myotubes, comparison with antioxidant compounds ([1]; 2 μg/ml): only carnosol has a significant hypertrophic activity
NRF2 accumulation [2]: both induce NRF2 accumulation
full activation of NRF2 pathway by inducing HO-1 [2]: only carnosol fully activates NRF2 pathway by inducing HO-1

O=C(/C=C/c1ccc(O)c(O)c1)O[C@H](Cc1ccc(O)c(O)c1)C(=O)O [rosmarinic acid, reference compound]
hypertrophic activity on myotubes, comparison with antioxidant compounds ([1]; 2 μg/ml): only carnosol has a significant hypertrophic activity

COC(=O)/C=C/C(=O)OC [DMF, dimethyl Fumarate, reference compound]
myotube hypertrophy ([1]; 50 μM, FIG. 15): does not induce repression of MURF1 protein and myotube hypertrophy
dose from which the NRF2 pathway is induced ([2]; skeletal muscle cells): > 20 µM
induction of the NRF2 pathway (NRF2 and HO-1) ([2]; skeletal muscle cells): induces the NRF2 pathway
repression of MURF1 protein ([3]; skeletal muscle cells, DMF treatment versus carnosol treatment): does not induce repression of MURF1 protein

CC(C)c1cc2c(c(O)c1O)[C@@]13CCCC(C)(C)[C@@H]1C[C@@H]2OC3=O [carnosol, Carnosol]
hypertrophic activity on myotubes, carnosol compared with carnosic acid [1]: the hypertrophic activity of carnosol is significantly higher than the one of carnosic acid
hypertrophic activity on myotubes, comparison with antioxidant compounds ([1]; 2 μg/ml): only carnosol has a significant hypertrophic activity
myotube hypertrophy ([1]; human myotubes treated 48 hours, 1 μg/ml, FIGS. 10-12): only carnosol treatment induced myotube hypertrophy
hypertrophic activity on myotubes (area of myotubes) ([1]; listed as commercially available carnosol): same hypertrophic activity as the fraction C
hypertrophic activity on myotubes (area of myotubes) ([1]; listed as fraction C): active compound was isolated in the fraction C
concentration from which hypertrophic activity is exhibited ([1]; conversion of 0.5 μg/ml): 1 to 2 µM
concentration from which hypertrophic activity is exhibited ([1]; tested 0.25-5 μg/ml): ≥ 0.5 µg/mL
phosphorylation rate of 4EBP1 (p-4EBP1/4EPB1) [4]: increasing the phosphorylation rate
phosphorylation rate of P70 S6 kinase (p-S6K/S6K) [4]: increasing the phosphorylation rate
phosphorylation rate of PS6 (p-S6/S6) [4]: increasing the phosphorylation rate
synthesis of protein in muscle cells (puromycin incorporation) [5]: stimulates the synthesis of protein in muscle cells
MURF1 protein level in gastrocnemius [6]: down-regulates MURF1 protein level
dose from which the NRF2 pathway is induced ([2]; skeletal muscle cells): ≥ 3 µM
NRF2 accumulation [2]: both induce NRF2 accumulation
full activation of NRF2 pathway by inducing HO-1 [2]: only carnosol fully activates NRF2 pathway by inducing HO-1
diameter of the fibers (fibre area, CSA) of the gastrocnemius [7]: significantly increases the diameter of the fibers
hypertrophic activity on myotube cells of elderly subjects [8]: has also a hypertrophic activity
MuRF1 expression (degradation of proteins) ([3]; myotubes, western blot, FIG. 14): inhibits strongly the MuRF1 expression

C[C@H]1[C@H](C)CC[C@]2(C(=O)O)CC[C@]3(C)C(=CC[C@@H]4[C@@]5(C)CC[C@H](O)C(C)(C)[C@@H]5CC[C@]43C)[C@H]12 [ursolic acid, reference compound]
hypertrophic activity on myotubes, comparison with antioxidant compounds ([1]; 2 μg/ml): only carnosol has a significant hypertrophic activity
